Test results reported in patent publication US20250041379A1, “METHODS AND COMPOSITIONS FOR THE TREATMENT OF CANCER” (Vigeo Therapeutics, Inc., priority 2021, published 2025).
No end group written: not given here.

Legend:
TSP-1 [1] = assay: Immunohistochemistry and pathological examination of pre-treatment and on-study rGBM tumor biopsy; type: in vivo, human; details: subject with rGBM who achieved CR
Source text: (§1) FIG. 10 is a chart showing that VT1021 induces TSP-1 in the circulation and the TME. (A) Bar graph of Tsp-1 protein levels measured by ELISA in circulating MDSCs collected prior to (baseline) and after (induction) treatment with VT1021 from patients who experienced complete or partial response, stable disease, or progressive disease; (B) H&E and immunohistochemical analysis of patient tumor tissue prior to onset (pre) or during treatment with VT1021; (C) Immunohistochemical analysis depicting representative images of high levels of CD36 and CD47.
(§2) The blood samples were collected from GBM subjects in the expansion phase, who were treated by VT1021 at 11.8 mg/kg, twice weekly, by IV infusion. VT1021 levels were measured and analyzed among male and female subjects (FIG. 7). […] CD36 and CD47 levels have been measured by immunohistochemistry assays in the pre-treatment tumor biopsy samples of the GBM subjects (FIG. 9, FIG. 10). Levels of Tsp-1 were measured by ELISA for circulating Tsp-1 levels in the collected blood samples, and by immunohistochemistry for the level of Tsp-1 accumulated in the tumor biopsy samples (FIG. 10). The infiltration of immune and inflammatory cells, specifically, MDSCs, T cells and macrophages, were determined by immunohistochemical analysis of the levels of cell surface markers in the tumor biopsy samples of subjects (FIG. 11).

GBM = assay: Example 4: treatment of GBM with dually elevated CD36 and CD47; type: in vivo; details: expected
Experimental: Subjects having GBM are identified using standard clinical protocols. Samples are obtained and levels of CD36 and CD47 measured using methods known in the art. Subjects presenting with dually elevated CD36 and CD47 levels as compared to suitable controls are selected for dosing with VT1021. Subjects advancing to the treatment phase are administered VT1021. Frequency and dosage are determined in accordance with the stage and severity of disease accordingly to methods standard in the art. Tumor burden and other disease indicators are measured and data compiled using methods known in the art.

TSP-1 [2] = assay: TSP-1 protein by ELISA in peripheral blood mononuclear cells of rGBM subjects; type: in vivo, human; details: all evaluable subjects with rGBM
Source text: as §1, §2

[3] = tested on: tumor microenvironment (TME) in pancreatic cancer; assay: Modulation of the TME in paired tumor biopsies by multiplex ion beam image analysis, pancreatic cancer; type: in vivo, human; details: 8 pairs of pancreatic cancer biopsies from Parts 1 & 2
Experimental: FIG. 5A and FIG. 5B are charts showing that VT1021 modulates the TME in pancreatic cancer.
In the “expansion stage” of the VT1021-01 Study, subjects diagnosed with recurrent GBM, pancreatic cancer, ovarian cancer and other solid tumors were enrolled. They were treated with VT1021 at 11.8 mg/kg, twice weekly by IV infusion. The blood samples were collected from the clinical study at pre-treatment, 0, 2, 4, 6 hours post treatment to measure the levels of VT1021 (FIG. 2). The tumor biopsy samples prior to treatment and during treatment were collected from the clinical study to measure expression levels of biomarkers including CD36 and CD47, as well as cell surface markers for immune cell populations in the TME by immunohistochemistry assays (FIG. 3, FIG. 4, FIG. 5). The correlation between days on study and tumor shrinkage versus expression profile of CD36 and CD47 was analyzed (FIG. 4). The general expression profile of CD36 and CD47 has been assessed by IHC on Tumor Tissue Microarrays (TMAs), which contain biopsy samples collected from pancreatic cancer patients. TMAs were purchased from commercial sources, not related to the VT1021-01 clinical study.
FIG. 5A and FIG. 5 B are charts showing that VT1021 modulates the TME in pancreatic cancer. Modulation of the TME by VT1021 in paired biopsies from subjects with pancreatic cancer was assessed by multiplex ion beam image analysis. Representative images from 1 of 3 regions of interest in tumor biopsies from a subject obtained pre-treatment (pre) and on-study (on). […] TSP-1+increased >2 fold in on-study biopsies compared to pre-treatment, both the CTL/Treg and M1/M2 macrophage ratios increased and the percent of M1 macrophages increased >3 fold in the TME after treatment with VT1021.

[4] = VT1021 concentration in plasma (pharmacokinetic profile) in the clinical study; type: in vivo, human; details: phase I/II study
Source text: FIG. 2 is a chart showing the pharmacokinetic profile of VT1021 concentration in the plasma of human patients with glioblastoma (red), pancreatic cancer (green), ovarian cancer (blue), other (purple) or not reported (red) over time following the initial administration at time 0. “Others” and “Not reported” refer to subjects enrolled in the clinical trial with solid tumor indications other than GBM, Panc, and Ovarian cancers.
FIG. 7 is a chart showing the pharmacokinetic profile of VT1021 concentration in the plasma of male (solid line) and female (dotted line) glioblastoma patients over time following the initial administration at time 0.
In the “expansion stage” of the VT1021-01 Study, subjects diagnosed with recurrent GBM, pancreatic cancer, ovarian cancer and other solid tumors were enrolled. […] The correlation between days on study and tumor shrinkage versus expression profile of CD36 and CD47 was analyzed (FIG. 4). The general expression profile of CD36 and CD47 has been assessed by IHC on Tumor Tissue Microarrays (TMAs), which contain biopsy samples collected from pancreatic cancer patients. […]
The blood samples were collected from GBM subjects in the expansion phase, who were treated by VT1021 at 11.8 mg/kg, twice weekly, by IV infusion. VT1021 levels were measured and analyzed among male and female subjects (FIG. 7). […]

recurrent GBM (rGBM) = assay: Phase I/II clinical study: clinical response and duration of treatment in recurrent GBM; type: in vivo, human
Experimental: VT1021 was evaluated in a recently completed phase I/II open-label, multicenter, dose escalation (Part 1) and expansion (Part 2) clinical study in advanced, refractory, solid tumors including recurrent GBM (rGBM) (NCT03364400). Thirty-two subjects with rGBM were dosed in Part 2, 22 of which were considered evaluable as having completed ≥1 cycle of VT1021 treatment and tumor imaging during cycle 2. […] The blood samples were collected from GBM subjects in the expansion phase, who were treated by VT1021 at 11.8 mg/kg, twice weekly, by IV infusion. VT1021 levels were measured and analyzed among male and female subjects (FIG. 7). Days on study have been collected from the same group of subjects (FIG. 8). […] CD36 and CD47 levels have been measured by immunohistochemistry assays in the pre-treatment tumor biopsy samples of the GBM subjects (FIG. 9, FIG. 10). Levels of Tsp-1 were measured by ELISA for circulating Tsp-1 levels in the collected blood samples, and by immunohistochemistry for the level of Tsp-1 accumulated in the tumor biopsy samples (FIG. 10). The infiltration of immune and inflammatory cells, specifically, MDSCs, T cells and macrophages, were determined by immunohistochemical analysis of the levels of cell surface markers in the tumor biopsy samples of subjects (FIG. 11). […] Among 22 evaluable rGBM subjects, 3 had complete response (CR), 1 had partial response (PR), and 7 had stable disease (SD) with an average study duration of over 203 days. The overall disease control rate (DCR) was 50%. […] Of the 11 CR/PR/SDs, 6 were dual high (55%). […] Complete response scan images and lesion shrinkage for 1 of 3 subjects who achieved CR.

[5] = among 22 evaluable rGBM subjects
[6] = among the 9 CD36/CD47 dual-high rGBM subjects
[7] = the 9 CD36/CD47 dual-high rGBM subjects

Substance: cyclic DWLPK (also: cyclic, mode of cyclisation not given here) [VT1021, 5-amino acid cyclic peptide from prosaposin; Tsp-1-inducing agent]
- TSP-1 in the on-study biopsy (TSP-1 [1]): TSP-1 induction
- tumor cells by pathological examination of the on-study biopsy (TSP-1 [1]): No tumor cells were detected
- tumor burden compared to control subjects (GBM): reduction in tumor burden
- TSP-1 protein in peripheral blood mononuclear cells (PBMCs) (TSP-1 [2]): induced
- CTL/Treg ratio in the TME after treatment [3]: increased
- M1/M2 macrophage ratio in the TME after treatment [3]: increased
- TSP-1+ mean intensity, increase on-study vs pre-treatment [3]: > 2 fold
- percent of M1 macrophages, increase in the TME after treatment [3]: > 3 fold
- pharmacokinetic profile ([4]; solid tumors including pancreatic cancer): predictable
- pharmacokinetic profile ([4]; solid tumors including rGBM): predictable
- treatment until lesion no longer measurable (recurrent GBM (rGBM); 1 CR rGBM subject, MRI lesion measurement): 9 cycles
- time on study (recurrent GBM (rGBM); 1 CR rGBM subject, still on-going): 476 days
- overall disease control rate (DCR) (recurrent GBM (rGBM); 22 evaluable rGBM subjects): 50%
- subjects with complete response (CR) (recurrent GBM (rGBM); [5]): 3
- subjects with partial response (PR) (recurrent GBM (rGBM); [5]): 1
- subjects achieving CR (recurrent GBM (rGBM); [6]): 3
- subjects achieving SD (recurrent GBM (rGBM); [6]): 3 subjects
- average study duration (recurrent GBM (rGBM); rGBM subjects with CR, PR or SD): over 203 days
- DCR (recurrent GBM (rGBM); [7]): 67%
- overall response rate (recurrent GBM (rGBM); [7]): 33.3%
